# Source: ChEMBL document CHEMBL5465560, “Selectivity Literature for EUbOPEN Chemogenomic Library” (2024)
# Legend:
# [1] = biological target: Serine/threonine-protein kinase WNK1 (Homo sapiens) (UniProt Q9H4A3); experiment: Selectivity interaction (KinomeScan (DiscoverX)) EUB0000229b WNK1; conditions: at 10 µM
# [2] = biological target: T1, Dual serine/threonine and tyrosine protein kinase (Homo sapiens) (UniProt Q6XUX3); experiment: Selectivity interaction (KinomeScan (DiscoverX)) EUB0000595a DSTYK; conditions: at 10 µM
# T1 sequence (whole entry): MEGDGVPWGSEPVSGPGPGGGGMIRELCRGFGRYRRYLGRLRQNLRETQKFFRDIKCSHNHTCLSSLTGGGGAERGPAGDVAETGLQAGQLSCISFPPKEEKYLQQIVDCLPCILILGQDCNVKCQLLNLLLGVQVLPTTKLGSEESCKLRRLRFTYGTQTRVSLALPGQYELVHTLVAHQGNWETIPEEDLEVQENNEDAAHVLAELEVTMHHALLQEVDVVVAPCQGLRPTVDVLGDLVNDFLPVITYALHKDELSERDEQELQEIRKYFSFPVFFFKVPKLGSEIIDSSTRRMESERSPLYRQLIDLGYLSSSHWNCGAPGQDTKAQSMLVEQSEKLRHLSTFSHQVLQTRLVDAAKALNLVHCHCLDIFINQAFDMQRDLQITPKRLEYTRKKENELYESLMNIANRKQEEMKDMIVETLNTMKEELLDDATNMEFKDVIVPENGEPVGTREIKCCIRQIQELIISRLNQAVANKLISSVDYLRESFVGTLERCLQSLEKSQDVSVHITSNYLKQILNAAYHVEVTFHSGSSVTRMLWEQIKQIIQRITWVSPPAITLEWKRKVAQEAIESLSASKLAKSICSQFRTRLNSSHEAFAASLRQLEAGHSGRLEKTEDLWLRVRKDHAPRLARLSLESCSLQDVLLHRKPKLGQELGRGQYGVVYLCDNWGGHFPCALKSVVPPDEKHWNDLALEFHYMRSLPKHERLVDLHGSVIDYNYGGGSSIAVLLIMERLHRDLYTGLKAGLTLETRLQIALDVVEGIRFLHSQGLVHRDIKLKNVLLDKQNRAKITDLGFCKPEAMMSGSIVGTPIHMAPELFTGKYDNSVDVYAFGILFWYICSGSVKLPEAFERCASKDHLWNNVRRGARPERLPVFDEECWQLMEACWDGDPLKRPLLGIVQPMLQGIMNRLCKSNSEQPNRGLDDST
# [3] = biological target: Tyrosine-protein kinase Yes (Homo sapiens) (UniProt P07947); experiment: Selectivity interaction (KinomeScan (DiscoverX)) EUB0000595a YES1; conditions: at 10 µM
# Tyrosine-protein kinase Yes (Homo sapiens), sequence (P07947 2-543 limits assumed): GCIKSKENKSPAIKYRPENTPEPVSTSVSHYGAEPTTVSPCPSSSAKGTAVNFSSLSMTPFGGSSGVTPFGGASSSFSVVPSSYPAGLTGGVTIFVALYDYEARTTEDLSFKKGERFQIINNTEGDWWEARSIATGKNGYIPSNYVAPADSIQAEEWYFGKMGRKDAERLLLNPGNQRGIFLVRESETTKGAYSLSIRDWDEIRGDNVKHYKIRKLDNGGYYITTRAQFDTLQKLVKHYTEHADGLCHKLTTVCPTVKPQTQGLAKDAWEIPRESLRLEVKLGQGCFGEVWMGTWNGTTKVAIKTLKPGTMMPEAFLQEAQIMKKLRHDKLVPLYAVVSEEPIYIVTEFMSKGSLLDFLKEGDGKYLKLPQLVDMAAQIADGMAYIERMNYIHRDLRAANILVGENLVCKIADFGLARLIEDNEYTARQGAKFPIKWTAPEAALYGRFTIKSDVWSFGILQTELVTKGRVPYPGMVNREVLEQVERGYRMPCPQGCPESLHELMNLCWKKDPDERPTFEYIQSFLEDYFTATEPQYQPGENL
# [4] = biological target: T2, Cyclin-dependent kinase-like 5 (Homo sapiens) (UniProt O76039); experiment: Selectivity interaction (KinomeScan (DiscoverX)) EUB0000666a CDKL5; conditions: at 10 µM
# T2 sequence (whole entry): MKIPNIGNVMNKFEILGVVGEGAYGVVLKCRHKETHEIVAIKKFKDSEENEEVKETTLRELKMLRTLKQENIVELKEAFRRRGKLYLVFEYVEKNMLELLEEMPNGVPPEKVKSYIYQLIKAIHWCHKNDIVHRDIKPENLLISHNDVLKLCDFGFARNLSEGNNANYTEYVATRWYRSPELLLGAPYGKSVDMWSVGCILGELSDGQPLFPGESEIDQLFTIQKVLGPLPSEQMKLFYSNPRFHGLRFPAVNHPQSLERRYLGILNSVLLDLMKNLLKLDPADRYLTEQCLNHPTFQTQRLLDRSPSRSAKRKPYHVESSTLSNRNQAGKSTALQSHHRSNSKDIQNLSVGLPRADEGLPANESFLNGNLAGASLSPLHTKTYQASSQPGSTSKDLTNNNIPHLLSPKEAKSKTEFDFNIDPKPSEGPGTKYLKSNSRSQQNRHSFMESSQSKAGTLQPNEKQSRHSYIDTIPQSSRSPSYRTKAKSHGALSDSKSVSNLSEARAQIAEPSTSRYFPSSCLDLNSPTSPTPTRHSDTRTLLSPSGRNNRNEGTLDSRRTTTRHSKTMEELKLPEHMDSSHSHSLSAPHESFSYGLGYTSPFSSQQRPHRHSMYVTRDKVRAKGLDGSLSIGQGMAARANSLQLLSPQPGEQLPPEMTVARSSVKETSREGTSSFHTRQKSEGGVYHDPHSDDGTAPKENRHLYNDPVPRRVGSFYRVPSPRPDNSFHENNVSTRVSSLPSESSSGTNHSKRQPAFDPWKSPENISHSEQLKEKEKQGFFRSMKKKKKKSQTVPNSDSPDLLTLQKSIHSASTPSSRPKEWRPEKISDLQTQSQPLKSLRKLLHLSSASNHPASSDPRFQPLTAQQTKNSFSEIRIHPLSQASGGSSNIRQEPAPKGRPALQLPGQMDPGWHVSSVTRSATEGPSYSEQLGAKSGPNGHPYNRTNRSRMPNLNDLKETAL
# [5] = biological target: Histone-lysine N-methyltransferase ASH1L (Homo sapiens) (UniProt Q9NR48); experiment: Selectivity interaction (Transferase panel (protein, RNA, and DNA methyltransferases. and EP300 (acetyltransferase))) EUB0000270b ASH1L
# Activated CDC42 kinase 1 = Activated CDC42 kinase 1 (Homo sapiens, UniProt Q07912); conditions: at 10 µM
# Activated CDC42 kinase 1, sequence (Q07912 whole entry, looked up): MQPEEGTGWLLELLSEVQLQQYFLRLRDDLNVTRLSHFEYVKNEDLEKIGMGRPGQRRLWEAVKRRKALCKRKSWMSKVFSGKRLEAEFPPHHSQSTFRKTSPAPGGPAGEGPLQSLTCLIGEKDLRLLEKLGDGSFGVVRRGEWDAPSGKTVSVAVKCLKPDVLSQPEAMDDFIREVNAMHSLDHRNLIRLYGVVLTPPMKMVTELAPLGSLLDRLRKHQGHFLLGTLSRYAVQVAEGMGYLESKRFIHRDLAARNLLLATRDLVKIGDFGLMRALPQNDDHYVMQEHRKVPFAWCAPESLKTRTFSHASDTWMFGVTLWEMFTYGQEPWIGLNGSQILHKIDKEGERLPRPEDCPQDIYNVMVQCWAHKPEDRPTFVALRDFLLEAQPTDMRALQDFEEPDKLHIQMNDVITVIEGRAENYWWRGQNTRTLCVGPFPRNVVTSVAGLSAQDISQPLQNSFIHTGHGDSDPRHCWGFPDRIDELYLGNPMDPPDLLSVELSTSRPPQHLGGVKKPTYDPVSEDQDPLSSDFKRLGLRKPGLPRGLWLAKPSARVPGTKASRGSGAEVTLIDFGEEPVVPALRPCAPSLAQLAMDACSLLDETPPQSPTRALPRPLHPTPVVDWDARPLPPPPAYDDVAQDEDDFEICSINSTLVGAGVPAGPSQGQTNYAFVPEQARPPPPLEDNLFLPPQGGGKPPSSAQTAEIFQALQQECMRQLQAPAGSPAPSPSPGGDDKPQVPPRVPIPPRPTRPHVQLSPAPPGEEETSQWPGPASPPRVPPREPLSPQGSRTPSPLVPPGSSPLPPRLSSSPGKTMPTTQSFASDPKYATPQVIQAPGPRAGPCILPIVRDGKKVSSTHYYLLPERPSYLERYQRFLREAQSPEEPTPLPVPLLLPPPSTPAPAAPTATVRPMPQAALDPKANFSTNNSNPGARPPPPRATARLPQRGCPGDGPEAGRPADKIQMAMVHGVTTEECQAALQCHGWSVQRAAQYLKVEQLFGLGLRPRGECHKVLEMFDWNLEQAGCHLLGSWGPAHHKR
# [6] = biological target: Homeodomain-interacting protein kinase 2 (Homo sapiens, UniProt Q9H2X6); experiment: Selectivity interaction (Upstate Kinase Profiler service (Millipore)) EUB0000056c HIPK2; conditions: at 1 µM
# [7] = biological target: Serine/threonine-protein kinase PAK 4 (Homo sapiens, UniProt O96013); experiment: Selectivity interaction (Upstate Kinase Profiler service (Millipore)) EUB0000056c PAK4; conditions: at 1 µM
# [8] = biological target: Mitotic checkpoint serine/threonine-protein kinase BUB1 (Homo sapiens, UniProt O43683); experiment: Selectivity interaction (KinomeScan (DiscoverX)) EUB0001619a BUB1; conditions: at 1 µM
# [9] = biological target: Tyrosine-protein kinase Fyn (Homo sapiens) (UniProt P06241); experiment: Selectivity interaction (ActivX KiNativ screen (ex vivo kinase selectivity in human PBMCs)) EUB0001619a FYN; assay type: cell-based; conditions: PBMC, at 1 µM
# [10] = biological target: Tyrosine-protein kinase JAK2 (Homo sapiens, UniProt O60674); experiment: Selectivity interaction (KinomeScan (DiscoverX)) EUB0000607a JAK2; conditions: at 10 µM
# [11] = biological target: Serine/threonine-protein kinase 16 (Homo sapiens, UniProt O75716); experiment: Selectivity interaction (KinomeScan (DiscoverX)) EUB0000607a STK16; conditions: at 10 µM
# Serine/threonine-protein kinase 16, sequence (O75716 whole entry): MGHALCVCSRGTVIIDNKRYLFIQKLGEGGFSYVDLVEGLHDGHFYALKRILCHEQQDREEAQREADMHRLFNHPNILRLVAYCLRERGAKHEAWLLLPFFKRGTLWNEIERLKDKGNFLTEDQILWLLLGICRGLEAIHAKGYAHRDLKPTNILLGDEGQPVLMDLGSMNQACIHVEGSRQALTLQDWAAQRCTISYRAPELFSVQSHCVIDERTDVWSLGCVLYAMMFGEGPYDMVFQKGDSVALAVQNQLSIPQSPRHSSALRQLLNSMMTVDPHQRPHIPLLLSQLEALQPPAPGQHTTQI
# [12] = biological target: Phosphatidylinositol 4-phosphate 5-kinase type-1 gamma (Homo sapiens) (UniProt O60331); experiment: Selectivity interaction (KinomeScan (DiscoverX)) EUB0000618a PIP5K1C; conditions: at 10 µM
# Phosphatidylinositol 4-phosphate 5-kinase type-1 gamma (Homo sapiens), sequence (O60331 whole entry): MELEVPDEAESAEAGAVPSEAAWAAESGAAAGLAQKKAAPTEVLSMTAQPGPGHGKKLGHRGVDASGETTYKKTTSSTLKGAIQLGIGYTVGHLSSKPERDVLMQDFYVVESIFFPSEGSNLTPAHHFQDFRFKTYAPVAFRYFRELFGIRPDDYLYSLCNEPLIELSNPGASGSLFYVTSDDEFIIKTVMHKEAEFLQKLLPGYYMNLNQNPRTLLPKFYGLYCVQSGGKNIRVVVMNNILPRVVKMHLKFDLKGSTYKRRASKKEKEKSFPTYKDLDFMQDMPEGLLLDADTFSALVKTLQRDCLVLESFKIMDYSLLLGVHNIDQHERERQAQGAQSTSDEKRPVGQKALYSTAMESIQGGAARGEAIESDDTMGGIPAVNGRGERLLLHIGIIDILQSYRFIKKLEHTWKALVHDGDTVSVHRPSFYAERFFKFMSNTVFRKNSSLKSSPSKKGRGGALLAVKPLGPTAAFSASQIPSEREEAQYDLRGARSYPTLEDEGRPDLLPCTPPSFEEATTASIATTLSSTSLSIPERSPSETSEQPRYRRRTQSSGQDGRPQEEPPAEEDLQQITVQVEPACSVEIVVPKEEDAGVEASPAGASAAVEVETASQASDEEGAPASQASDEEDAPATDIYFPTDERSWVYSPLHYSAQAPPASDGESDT
# [13] = biological target: NT-3 growth factor receptor (Homo sapiens, UniProt Q16288); experiment: Selectivity interaction (Kinase panel (Invitrogen)) EUB0000639a NTRK3; conditions: at 200 nM
# Serine/threonine-protein kinase WNK1 (Homo sapiens), sequence (Q9H4A3 whole entry, looked up): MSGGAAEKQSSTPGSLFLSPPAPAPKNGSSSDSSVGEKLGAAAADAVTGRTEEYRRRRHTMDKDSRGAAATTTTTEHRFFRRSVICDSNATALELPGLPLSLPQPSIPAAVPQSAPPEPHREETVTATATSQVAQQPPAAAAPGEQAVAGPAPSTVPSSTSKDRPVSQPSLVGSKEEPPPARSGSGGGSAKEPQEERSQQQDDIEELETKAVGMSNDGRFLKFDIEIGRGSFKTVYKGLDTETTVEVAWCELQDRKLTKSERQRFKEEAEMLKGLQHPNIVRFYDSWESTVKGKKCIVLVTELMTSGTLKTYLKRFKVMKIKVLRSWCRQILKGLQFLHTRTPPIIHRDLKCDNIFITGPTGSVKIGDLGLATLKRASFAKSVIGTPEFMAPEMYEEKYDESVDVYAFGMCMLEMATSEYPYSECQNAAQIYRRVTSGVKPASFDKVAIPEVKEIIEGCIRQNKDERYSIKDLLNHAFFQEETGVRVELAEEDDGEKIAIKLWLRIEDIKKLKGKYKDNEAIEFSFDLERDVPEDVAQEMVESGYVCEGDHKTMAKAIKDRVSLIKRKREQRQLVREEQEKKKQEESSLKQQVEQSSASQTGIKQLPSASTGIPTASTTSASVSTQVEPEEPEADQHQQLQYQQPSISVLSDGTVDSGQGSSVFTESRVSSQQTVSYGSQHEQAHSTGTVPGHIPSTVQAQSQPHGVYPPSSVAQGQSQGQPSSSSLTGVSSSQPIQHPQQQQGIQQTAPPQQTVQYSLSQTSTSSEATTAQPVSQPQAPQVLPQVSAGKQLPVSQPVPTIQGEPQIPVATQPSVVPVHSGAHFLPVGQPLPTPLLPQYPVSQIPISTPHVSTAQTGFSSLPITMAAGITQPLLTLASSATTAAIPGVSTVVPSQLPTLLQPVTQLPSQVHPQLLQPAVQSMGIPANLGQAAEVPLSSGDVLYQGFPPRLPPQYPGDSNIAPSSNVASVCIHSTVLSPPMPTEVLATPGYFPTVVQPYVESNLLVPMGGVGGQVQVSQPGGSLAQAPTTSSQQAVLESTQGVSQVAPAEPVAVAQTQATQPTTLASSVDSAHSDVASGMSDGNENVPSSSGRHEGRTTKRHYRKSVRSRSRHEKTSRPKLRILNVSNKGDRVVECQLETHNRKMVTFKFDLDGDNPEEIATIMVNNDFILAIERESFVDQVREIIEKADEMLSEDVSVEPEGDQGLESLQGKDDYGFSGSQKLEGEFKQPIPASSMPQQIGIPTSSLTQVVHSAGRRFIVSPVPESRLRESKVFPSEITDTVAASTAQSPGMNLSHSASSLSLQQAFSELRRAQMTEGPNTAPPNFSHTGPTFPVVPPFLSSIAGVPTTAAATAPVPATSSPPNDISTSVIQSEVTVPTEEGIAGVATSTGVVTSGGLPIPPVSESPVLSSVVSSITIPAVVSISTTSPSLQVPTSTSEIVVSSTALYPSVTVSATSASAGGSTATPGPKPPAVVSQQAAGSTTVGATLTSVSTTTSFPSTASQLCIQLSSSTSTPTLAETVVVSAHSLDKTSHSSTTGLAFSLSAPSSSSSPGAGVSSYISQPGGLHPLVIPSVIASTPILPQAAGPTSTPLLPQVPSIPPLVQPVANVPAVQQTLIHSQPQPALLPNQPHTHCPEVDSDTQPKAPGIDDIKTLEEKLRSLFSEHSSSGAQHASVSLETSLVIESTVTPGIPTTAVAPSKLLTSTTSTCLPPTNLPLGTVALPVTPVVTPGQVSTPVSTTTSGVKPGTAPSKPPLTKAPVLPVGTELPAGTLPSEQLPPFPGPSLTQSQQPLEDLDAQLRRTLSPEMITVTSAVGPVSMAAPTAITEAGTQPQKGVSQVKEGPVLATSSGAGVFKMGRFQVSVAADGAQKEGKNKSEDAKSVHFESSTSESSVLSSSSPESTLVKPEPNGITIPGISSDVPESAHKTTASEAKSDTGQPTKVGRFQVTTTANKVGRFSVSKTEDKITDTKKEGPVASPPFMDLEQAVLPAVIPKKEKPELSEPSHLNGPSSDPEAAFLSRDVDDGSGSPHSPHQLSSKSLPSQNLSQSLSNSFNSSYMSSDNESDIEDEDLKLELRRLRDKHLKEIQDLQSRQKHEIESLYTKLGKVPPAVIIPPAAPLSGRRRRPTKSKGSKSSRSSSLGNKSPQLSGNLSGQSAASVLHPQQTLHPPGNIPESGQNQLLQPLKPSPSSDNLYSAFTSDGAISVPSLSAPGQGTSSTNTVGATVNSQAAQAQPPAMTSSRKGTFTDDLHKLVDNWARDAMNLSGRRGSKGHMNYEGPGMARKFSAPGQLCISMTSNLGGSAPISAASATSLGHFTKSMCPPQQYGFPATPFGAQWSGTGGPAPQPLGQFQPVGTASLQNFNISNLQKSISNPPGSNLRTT
smiles,measurement,setting,value
COc1cc(N(C)c2ccnc3ccc(C(F)(F)F)cc23)cc(OC)c1OC,% binding,[1],72%
COCC(=O)NC/C=C/c1ccc2ncnc(Nc3ccc(Oc4ccc(C)nc4)c(C)c3)c2c1 [CP-724714],% of control,[2],75%
same,% of control,[3],65%
O=C(NOC[C@H](O)CO)c1ccc(F)c(F)c1Nc1ccc(I)cc1F,% of control,[4],67%
Cc1cc(CN)cc(C)c1-c1ncn(C)c1-c1cncn1C,% activity,[5]; at 1 µM,> 90%
same,% activity,[5]; at 10 µM,> 80%
Cc1cc([C@@H](C)Nc2ccccc2C(=O)O)c2nc(N3CCOCC3)cc(=O)n2c1 [AZD-6482],% of control,Activated CDC42 kinase 1,100%
Cc1ccc(-c2ccc3c(ccc4sc5c(c43)NC[C@@H](C)NC5=O)n2)cn1,% of inhibition,[6],2%
same,% of inhibition,[7],3%
N#Cc1cccc(-c2c[nH]c3ncnc(N4CCOCC4)c23)c1,% of control,[8],86%
same,% of inhibition,[9],-9%
CNC(=O)Nc1ccc(-c2nc(N3CC4CCC(C3)O4)c3cnn(C4CCC5(CC4)OCCO5)c3n2)cc1,% of control,[10],100%
same,% of control,[11],98%
O[C@H]1CC[C@H](Nc2ncc3nc(Nc4c(F)cc(F)cc4F)n([C@H]4CCOC4)c3n2)CC1,% of control,[12],76%
CC[C@@H]1[C@H](F)C(=O)N[C@@H]1COc1nccc2cc(C(N)=O)c(OC)cc12 [ZIMLOVISERTIB],% of inhibition,[13],21.9%
